Data reported in patent US20250304567A1, “PYRROLIDIONE DERIVATIVES AS INHIBITORS OF NF KAPPA B INDUCING KINASE” (priority 2022, published 2025).
pIC50: −log10 of the molar value. Where two headings read alike, the source gives them in different places.

Experiments:
[1] = tested on: p-IKKa levels in L363 (NIK translocated multiple myeloma) cells; experiment: Effect of compounds on p-IKKa levels in L363 (NIK translocated multiple myeloma) cells (AlphaLISA SureFire Ultra p-IKKa Ser176/180); type: cell-based, human
Experimental: Assay 2: Effect of Compounds on p-IKKa Levels in L363 (NIK Translocated Multiple Myeloma) Cells
All compounds tested were dissolved and serially diluted in DMSO, 1:3 dilution for 11 points in an Echo compatible plate. 100% DMSO was added to columns 12 and 24 of the plate to serve as high and low signal controls. This compound plate was used to spot 20 nL of compound or DMSO into a Greiner 384 well TC plate (781080). The final DMSO concentration was 0.3% (v/v) in cell assays. Human L363 cells (ATCC) were cultured in RPM11640 medium supplemented with GlutaMax, non-essential amino acids, sodium pyruvate and 10% fetal bovine serum. Cells were routinely maintained at densities of 0.2×10^6 cells per ml-2×10^6 cells per mL at 37° C. in a humidified 5% CO2 atmosphere incubator. Cells were passaged twice a week splitting back to obtain the low density. The day before the assay, cells were washed twice in HBSS (Hank's Balanced Salt Solution), resuspended in Dulbecco's Modified Eagle Medium (DMEM)+0.5% IgG and protease free BSA (Jackson Immuno Research Laboratories), +/−250 ng/ml recombinant human B-cell activating factor (BAFF/BLyS/TNFSF13B) and incubated overnight at 37° C. in a humidified 5% CO2 atmosphere (bulk stimulation with or without BAFF). The next day, the cell concentration was adjusted to 1×10^7 cells/ml in DMEM+/−250 ng/ml BAFF+/−10 μM MG132 and plated at 10 μl/well into compound or DMSO spotted 384 well TC plates. Seeded cells were incubated at 37° C. in a humidified 5% CO2 atmosphere for 6 h. After 6 h, the plates were removed from the incubator and cell lysis was achieved by the addition of 2.5 μl 5× lysis buffer containing protease and phosphatase inhibitors, followed by shaking on a plate shaker at room temperature for 15 min. At the end of this incubation, lysed cells were sequentially treated and incubated with acceptor and donor bead mixes according to the manufacturer's protocol for a 1 plate/2-incubation suspension cell assay (AlphaLISA SureFire Ultra p-IKKa (Ser 176/180) Assay Kit (Perkin Elmer). Plates were read using an EnVision Multilabel Plate Reader (Perkin Elmer). Within an experiment, a concentration response curve for each compound was run in duplicate. The signal obtained in the test wells was normalized using high signal (BAFF stimulated cells, DMSO, MG132) and low signal (unstimulated cells, DMSO) controls. To determine the IC50, a sigmoidal curve was fitted to the plot of % inhibition versus Log10 compound concentration.

[2] = molecular target: Recombinant Human NF-kappaB-Inducing Kinase (NIK/MAP3K14) (Homo sapiens, UniProt Q99558); experiment: Inhibition of auto-phosphorylation of recombinant human NIK/MAP3K14 activity (AlphaScreen); type: biochemical; details: 5 μM ATP, 1 nM NIK, average if tested more than once
Recombinant Human NF-kappaB-Inducing Kinase (NIK/MAP3K14), sequence (Q99558 whole entry): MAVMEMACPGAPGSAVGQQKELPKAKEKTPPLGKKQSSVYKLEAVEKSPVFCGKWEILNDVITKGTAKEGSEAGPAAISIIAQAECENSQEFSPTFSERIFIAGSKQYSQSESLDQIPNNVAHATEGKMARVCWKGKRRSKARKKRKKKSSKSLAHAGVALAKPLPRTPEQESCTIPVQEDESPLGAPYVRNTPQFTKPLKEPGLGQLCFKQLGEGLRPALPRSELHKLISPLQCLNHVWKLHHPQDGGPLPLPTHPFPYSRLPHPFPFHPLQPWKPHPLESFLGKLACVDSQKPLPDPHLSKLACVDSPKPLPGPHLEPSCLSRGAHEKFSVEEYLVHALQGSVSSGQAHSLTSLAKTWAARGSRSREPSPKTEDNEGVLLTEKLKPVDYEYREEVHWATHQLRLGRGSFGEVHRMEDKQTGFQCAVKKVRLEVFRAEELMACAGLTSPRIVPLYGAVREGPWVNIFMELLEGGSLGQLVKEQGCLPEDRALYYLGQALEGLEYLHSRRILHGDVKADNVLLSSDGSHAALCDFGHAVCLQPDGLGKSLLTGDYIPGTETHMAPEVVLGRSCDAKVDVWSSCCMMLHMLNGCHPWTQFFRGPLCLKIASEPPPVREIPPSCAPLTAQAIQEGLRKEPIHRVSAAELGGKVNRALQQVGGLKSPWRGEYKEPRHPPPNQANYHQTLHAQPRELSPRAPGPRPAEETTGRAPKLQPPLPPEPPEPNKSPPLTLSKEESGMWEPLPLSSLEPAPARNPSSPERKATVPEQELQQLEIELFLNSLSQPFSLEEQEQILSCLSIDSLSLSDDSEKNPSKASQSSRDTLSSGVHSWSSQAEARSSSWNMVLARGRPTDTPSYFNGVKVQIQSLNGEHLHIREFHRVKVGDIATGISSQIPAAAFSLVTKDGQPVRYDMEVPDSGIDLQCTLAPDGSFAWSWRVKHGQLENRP
Experimental: Assay 1: Inhibition of Auto-Phosphorylation of Recombinant Human NF-kappaB-Inducing Kinase (NIK/MAP3K14) Activity (AlphaScreen™)
NIK/MAP3K14 auto-phosphorylation activity was measured using the AlphaScreen™ (αscreen) format (Perkin Elmer). All compounds tested were dissolved in dimethyl sulfoxide (DMSO) and further dilutions were made in assay buffer. The final DMSO concentration was 0.7% (v/v) in assays. The assay buffer was 50 mM Tris pH 7.5 containing 1 mM EGTA (ethylene glycol tetraacetic acid), 1 mM DTT (dithiothreitol), 0.1 mM Na3VO4, 5 mM MgCl2, and 0.01% Tween®20. The assays were carried out in 384 well Proxiplates (Perkin Elmer). The incubations consisted of the compound, 5 μM Adenosine-5′-triphosphate (ATP), and 1 nM NIK/MAP3K14. Incubations were initiated by the addition of GST-tagged NIK/MAP3K14 enzyme, carried out for 2 h at 25° C. and terminated by addition of stop buffer containing anti-phospho-IKK Ser176/180 antibody. Protein A Acceptor and Glutathione-Donor beads were added before reading using an EnVision Multilabel Plate Reader (Perkin Elmer). The signal obtained in the wells was normalized using high (full enzyme activity, 0.7% DMSO) and low controls (no enzyme activity, 0.7% DMSO, no ATP). IC50's were determined by fitting a sigmoidal curve to % inhibition of control versus Log10 compound concentration.

[3] = p-IKKa levels in L363 cells, average if tested more than once, read-out: Assay 2 IC50
[4] = Homo sapiens, L-363, p-IKKa levels in L363 cells, average if tested more than once, read-out: Assay 2 IC50

| Compound | pIC50 [1, 3] | pIC50 [2] | pIC50 [1, 4] | pIC50 ([1]; Homo sapiens, L-363, read-out: Assay 2 IC50) |
| --- | --- | --- | --- | --- |
| C[C@H](Nc1nccc(-c2csc(-c3cccc([C@]4(O)CCN(C)C4=O)c3)n2)n1)c1cn[nH]c1 (single isomer, unassigned) [Example 294] | < 6.30 | > 7.00 |  |  |
| Cc1cnc(Nc2ccn(C)n2)nc1-c1csc(-c2cccc([C@]3(O)CCN(C)C3=O)c2)n1 [Example 16, (R)-3-Hydroxy-1-methyl-3-(3-(4-(5-methyl-2-((1-methyl-1H-pyrazol-3-yl)amino)pyrimidin-4-yl)thiazol-2-yl)phenyl)pyrrolidin-2-one] |  | 6.30 to 7.00 | < 6.30 |  |
| CN1CC[C@@](O)(c2cccc(-c3nc(-c4ccnc(N[C@H]5CCC[C@H](O)C5)n4)cs3)c2)C1=O [Example 254] |  | 6.30 to 7.00 | < 6.30 |  |
| C[C@@H](Nc1nccc(-c2nc(-c3cccc([C@]4(O)CCN(C)C4=O)c3)cs2)n1)c1ccnn1C (single isomer, unassigned) [Example 127] |  | > 7.00 | 6.30 to 7.00 |  |
| CN1CC[C@@](O)(c2cccc(-c3nc(-c4ccnc(Nc5cnn6c5NCCC6)n4)cs3)c2)C1=O [Example 54, (R)-3-hydroxy-1-methyl-3-(3-(4-(2-((4,5,6,7-tetrahydropyrazolo[1,5-a]pyrimidin-3-yl)amino)pyrimidin-4-yl)thiazol-2-yl)phenyl)pyrrolidin-2-one] |  | > 7.00 | 6.30 to 7.00 |  |
| CN1CC[C@@](O)(c2cccc(-c3nc(-c4ccnc(N[C@H]5CCC[C@@H](O)C5)n4)cs3)c2)C1=O [Example 255] |  | 6.30 to 7.00 | < 6.30 |  |
| CN1CC[C@@](O)(c2cccc(-c3nc(-c4ccnc(NCCn5cccn5)n4)cs3)c2)C1=O [Example 198] |  | 6.30 to 7.00 | < 6.30 |  |
| Cc1cc(CNc2nccc(-c3csc(-c4cccc([C@]5(O)CCN(C)C5=O)c4)n3)n2)nn1C [Example 209] |  | > 7.00 | < 6.30 |  |
| CN1CC[C@@](O)(c2ccnc(-c3csc(-c4ccnc(Nc5ccnn5C)n4)n3)c2)C1=O (single isomer, unassigned) [Example 144, (R)-3-hydroxy-1-methyl-3-(2-(2-(2-((1-methyl-1H-pyrazol-5-yl)amino)pyrimidin-4-yl)thiazol-4-yl)pyridin-4-yl)pyrrolidin-2-one or (S)-3-hydroxy-1-methyl-3-(2-(2-(2-((1-methyl-1H-pyrazol-5-yl)amino)pyrimidin-4-yl)thiazol-4-yl)pyridin-4-yl)pyrrolidin-2-one] |  | > 7.00 | 6.30 to 7.00 |  |
| CC(=O)N1CC[C@H](Nc2nccc(-c3csc(-c4cccc([C@]5(O)CCN(C)C5=O)c4)n3)n2)C1 [Example 221] |  | 6.30 to 7.00 | < 6.30 |  |
| COc1ncccc1Nc1nccc(-c2csc(-c3cccc([C@]4(O)CCN(C)C4=O)c3)n2)n1 [Example 7, (R)-3-Hydroxy-3-(3-(4-(2-((2-methoxypyridin-3-yl)amino)pyrimidin-4-yl)thiazol-2-yl)phenyl)-1-methylpyrrolidin-2-one] |  | > 7.00 | 6.30 to 7.00 |  |
| CN1CC[C@@](O)(c2cccc(-c3csc(-c4ccnc(Nc5cnn(CC6CC6)c5)n4)n3)c2)C1=O [Example 20, (R)-3-(3-(2-(2-((1-(cyclopropylmethyl)-1H-pyrazol-4-yl)amino)pyrimidin-4-yl)thiazol-4-yl)phenyl)-3-hydroxy-1-methylpyrrolidin-2-one] |  | 6.30 to 7.00 | < 6.30 |  |
| Cc1csc(Nc2nccc(-c3csc(-c4cccc([C@]5(O)CCN(C)C5=O)c4)n3)n2)n1 [Example 247] |  | > 7.00 | 6.30 to 7.00 |  |
| Cc1cnc(CNc2nccc(-c3csc(-c4cccc([C@]5(O)CCN(C)C5=O)c4)n3)n2)nc1 [Example 208] |  | < 6.30 | < 6.30 |  |
| CN1CC[C@@](O)(c2cccc(-c3nc(-c4ccnc(N[C@H]5CCC[C@@H]5O)n4)cs3)c2)C1=O [Example 108, (R)-3-hydroxy-3-(3-(4-(2-(((1S,2S)-2-hydroxycyclopentyl)amino)pyrimidin-4-yl)thiazol-2-yl)phenyl)-1-methylpyrrolidin-2-one] |  | 6.30 to 7.00 | < 6.30 |  |
| COC[C@H](Nc1nccc(-c2nc(-c3cccc([C@]4(O)CCN(C)C4=O)c3)cs2)n1)c1ccnn1C (single isomer, unassigned) [Example 129] |  | > 7.00 | 6.30 to 7.00 |  |
| CN1CCC(O)(c2ccnc(-c3nc(-c4ccnc(Nc5ccn(C)n5)n4)cs3)c2)C1=O (single isomer, unassigned) [Example 33, 3-hydroxy-1-methyl-3-(2-(4-(2-((1-methyl-1H-pyrazol-3-yl)amino)pyrimidin-4-yl)thiazol-2-yl)pyridin-4-yl)pyrrolidin-2-one] | < 6.30 | < 6.30 |  |  |
| CN1CC[C@@](O)(c2cccc(-c3nc(-c4ccnc(NCCCNS(C)(=O)=O)n4)cs3)c2)C1=O [Example 231] |  | 6.30 to 7.00 | < 6.30 |  |
| CNC(=O)c1cc(Nc2nccc(-c3csc(-c4cccc([C@]5(O)CCN(C)C5=O)c4)n3)n2)n(CC(C)C)n1 [Example 13, (R)-5-((4-(2-(3-(3-Hydroxy-1-methyl-2-oxopyrrolidin-3-yl)phenyl)thiazol-4-yl)pyrimidin-2-yl)amino)-1-isobutyl-N-methyl-1H-pyrazole-3-carboxamide] |  | > 7.00 | 6.30 to 7.00 |  |
| Cc1cccc(Nc2nccc(-c3csc(-c4cccc([C@]5(O)CCN(C)C5=O)c4)n3)n2)n1 [Example 48, (R)-3-hydroxy-1-methyl-3-(3-(4-(2-((6-methylpyridin-2-yl)amino)pyrimidin-4-yl)thiazol-2-yl)phenyl)pyrrolidin-2-one] |  | > 7.00 | < 6.30 |  |
| CN1CC[C@@](O)(c2cccc(-c3nc(-c4ccnc(Nc5ccn(CCO)n5)n4)cs3)c2)C1=O [Example 286, (R)-3-hydroxy-3-(3-(4-(2-((1-(2-hydroxyethyl)-1H-pyrazol-3-yl)amino)pyrimidin-4-yl)thiazol-2-yl)phenyl)-1-methylpyrrolidin-2-one] |  | > 7.00 | 6.30 to 7.00 |  |
| CN1CC[C@@](O)(c2cccc(-c3csc(-c4ccnc(Nc5ccnn5C)n4)n3)c2)C1=O [Example 5, (R)-3-hydroxy-1-methyl-3-(3-(2-(2-((1-methyl-1H-pyrazol-5-yl)amino)pyrimidin-4-yl)thiazol-4-yl)phenyl)pyrrolidin-2-one] |  | > 7.00 | > 7.00 |  |
| CN1CCC(O)(c2ccc(F)c(-c3csc(-c4ccnc(Nc5ccn(C)n5)n4)n3)c2)C1=O (single isomer, unassigned) [Example 28, 3-(4-fluoro-3-(2-(2-((1-methyl-1H-pyrazol-3-yl)amino)pyrimidin-4-yl)thiazol-4-yl)phenyl)-3-hydroxy-1-methylpyrrolidin-2-one] | > 7.00 | > 7.00 |  |  |
| Cc1cc(CNc2nccc(-c3csc(-c4cccc([C@]5(O)CCN(C)C5=O)c4)n3)n2)n[nH]1 [Example 195] |  |  | < 6.30 |  |
| Cc1cncnc1Nc1nccc(-c2csc(-c3cccc([C@]4(O)CCN(C)C4=O)c3)n2)n1 [Example 105, (R)-3-hydroxy-1-methyl-3-(3-(4-(2-((5-methylpyrimidin-4-yl)amino)pyrimidin-4-yl)thiazol-2-yl)phenyl)pyrrolidin-2-one] |  |  |  | < 6.30 |
